Measured values taken from ChEMBL document CHEMBL1201862, “PubChem BioAssay data set” (2004).
Calls of active or inactive are those of the source.

What was measured:
[1] = target: Casein kinase I isoform gamma-1 (Homo sapiens, UniProt Q9HCP0); assay type: functional;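 note: measured as the CSNK1G1 member of a kinome profiling panel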
[2] = target: Cell division cycle 7-related protein kinase (Homo sapiens, UniProt O00311); assay type: functional;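 note: value obtained from a kinome-wide kinase panel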
Chain of Cell division cycle 7-related protein kinase (O00311 whole entry): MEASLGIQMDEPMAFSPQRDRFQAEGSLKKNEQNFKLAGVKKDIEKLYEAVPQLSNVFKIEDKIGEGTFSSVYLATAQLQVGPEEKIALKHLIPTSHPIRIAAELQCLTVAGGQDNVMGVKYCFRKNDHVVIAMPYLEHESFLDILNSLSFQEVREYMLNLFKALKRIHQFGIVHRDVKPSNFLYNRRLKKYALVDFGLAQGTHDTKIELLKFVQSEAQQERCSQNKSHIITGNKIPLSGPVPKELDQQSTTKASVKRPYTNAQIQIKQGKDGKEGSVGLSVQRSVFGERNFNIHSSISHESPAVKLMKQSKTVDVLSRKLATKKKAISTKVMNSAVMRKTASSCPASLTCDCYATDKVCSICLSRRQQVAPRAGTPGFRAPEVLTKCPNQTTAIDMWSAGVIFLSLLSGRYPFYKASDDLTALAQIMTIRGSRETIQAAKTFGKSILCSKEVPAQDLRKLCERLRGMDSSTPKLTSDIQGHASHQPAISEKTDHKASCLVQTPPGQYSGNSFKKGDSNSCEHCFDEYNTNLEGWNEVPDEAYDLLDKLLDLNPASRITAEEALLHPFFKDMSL

[3] = target: Mast/stem cell growth factor receptor Kit (Homo sapiens, UniProt P10721); assay type: functional;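 note: KIT entry within a kinase panel assay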
[4] = target: Receptor tyrosine-protein kinase erbB-4 (Homo sapiens, UniProt Q15303); assay type: functional;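 note: ERBB4 member of a kinome-wide kinase profiling panel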
Chain of Receptor tyrosine-protein kinase erbB-4 (Q15303 whole entry): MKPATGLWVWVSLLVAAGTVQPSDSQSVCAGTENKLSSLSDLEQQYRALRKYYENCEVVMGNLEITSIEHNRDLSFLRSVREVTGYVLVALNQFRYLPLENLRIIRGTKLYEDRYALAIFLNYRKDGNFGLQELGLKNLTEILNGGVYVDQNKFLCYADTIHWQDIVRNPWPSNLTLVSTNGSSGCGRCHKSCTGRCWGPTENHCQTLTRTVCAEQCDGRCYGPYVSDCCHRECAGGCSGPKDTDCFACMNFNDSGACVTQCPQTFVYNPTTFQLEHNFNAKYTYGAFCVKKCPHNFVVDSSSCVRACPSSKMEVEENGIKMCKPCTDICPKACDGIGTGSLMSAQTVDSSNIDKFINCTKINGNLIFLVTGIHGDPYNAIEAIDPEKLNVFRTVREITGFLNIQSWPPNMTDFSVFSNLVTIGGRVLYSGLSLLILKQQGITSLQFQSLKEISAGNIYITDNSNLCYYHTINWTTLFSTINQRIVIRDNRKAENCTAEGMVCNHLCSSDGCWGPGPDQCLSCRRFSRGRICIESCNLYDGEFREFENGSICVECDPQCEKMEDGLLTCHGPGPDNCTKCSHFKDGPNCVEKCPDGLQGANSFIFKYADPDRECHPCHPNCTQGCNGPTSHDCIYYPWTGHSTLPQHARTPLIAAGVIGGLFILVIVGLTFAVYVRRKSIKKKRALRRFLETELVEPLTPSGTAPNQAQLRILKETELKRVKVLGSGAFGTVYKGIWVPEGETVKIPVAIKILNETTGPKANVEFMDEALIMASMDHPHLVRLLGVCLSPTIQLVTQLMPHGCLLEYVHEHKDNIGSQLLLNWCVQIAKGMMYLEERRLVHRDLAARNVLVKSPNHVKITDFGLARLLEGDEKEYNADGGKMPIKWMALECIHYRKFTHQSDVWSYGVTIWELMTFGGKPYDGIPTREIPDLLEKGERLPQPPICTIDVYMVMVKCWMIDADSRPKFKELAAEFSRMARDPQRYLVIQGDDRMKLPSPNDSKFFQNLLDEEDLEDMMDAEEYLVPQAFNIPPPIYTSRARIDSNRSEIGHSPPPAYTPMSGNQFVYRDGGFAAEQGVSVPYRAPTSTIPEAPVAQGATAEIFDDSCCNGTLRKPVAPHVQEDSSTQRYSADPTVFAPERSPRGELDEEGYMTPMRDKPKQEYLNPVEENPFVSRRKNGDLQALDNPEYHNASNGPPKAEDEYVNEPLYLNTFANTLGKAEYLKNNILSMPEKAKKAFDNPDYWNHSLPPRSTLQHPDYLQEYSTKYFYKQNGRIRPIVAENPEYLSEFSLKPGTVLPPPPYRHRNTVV

[5] = target: Ribosomal protein S6 kinase alpha-3 (Homo sapiens, UniProt P51812); assay type: functional;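 note: measured within a kinome-wide profiling panel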
[6] = target: Tyrosine-protein kinase SYK (Homo sapiens, UniProt P43405); assay type: functional
[7] = target: Fibroblast growth factor receptor 1 (Homo sapiens, UniProt P11362); assay type: functional
[8] = target: Ribosomal protein S6 kinase alpha-5 (Homo sapiens, UniProt O75582); assay type: functional
[9] = target: Phosphorylase b kinase gamma catalytic chain, liver/testis isoform (Homo sapiens, UniProt P15735); assay type: functional;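 note: PHKG2 measured as one member of a kinome-wide kinase panel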
[10] = target: MAP kinase-activated protein kinase 3 (Homo sapiens, UniProt Q16644); assay type: functional;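 note: value comes from a kinome-wide profiling panel in which MAPKAPK3 is one of the panel members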
[11] = target: Tyrosine-protein kinase receptor TYRO3 (Homo sapiens, UniProt Q06418); assay type: functional;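 note: TYRO3 value obtained as one member of a kinome-wide profiling panel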
[12] = target: Tyrosine-protein kinase Fer (Homo sapiens, UniProt P16591); assay type: functional;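 note: FER tested as one member of a kinome panel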
[13] = target: Homeodomain-interacting protein kinase 4 (Homo sapiens, UniProt Q8NE63); assay type: functional
[14] = target: Tyrosine-protein kinase Fyn (Homo sapiens, UniProt P06241); assay type: functional
[15] = target: Epidermal growth factor receptor (Homo sapiens, UniProt P00533)
[16] = target: ALK tyrosine kinase receptor (Homo sapiens, UniProt Q9UM73); assay type: functional;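 note: ALK tested as one member of a kinase panel screen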
[17] = target: Serine/threonine-protein kinase MRCK alpha (Homo sapiens, UniProt Q5VT25); assay type: functional
[18] = target: Serine/threonine-protein kinase N2 (Homo sapiens, UniProt Q16513); assay type: functional
[19] = target: Aurora kinase B (Homo sapiens, UniProt Q96GD4); assay type: functional
Chain of Aurora kinase B (Q96GD4 whole entry): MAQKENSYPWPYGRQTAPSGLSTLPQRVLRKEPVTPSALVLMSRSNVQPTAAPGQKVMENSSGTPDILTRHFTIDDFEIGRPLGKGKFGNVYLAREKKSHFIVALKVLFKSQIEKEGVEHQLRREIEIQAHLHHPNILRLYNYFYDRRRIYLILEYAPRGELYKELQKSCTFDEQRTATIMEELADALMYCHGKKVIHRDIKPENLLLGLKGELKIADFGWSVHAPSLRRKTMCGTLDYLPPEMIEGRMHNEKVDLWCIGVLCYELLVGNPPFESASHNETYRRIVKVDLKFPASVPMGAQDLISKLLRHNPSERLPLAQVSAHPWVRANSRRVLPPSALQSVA

[20] = target: Mitogen-activated protein kinase kinase kinase kinase 2 (Homo sapiens, UniProt Q12851); assay type: functional;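 note: measured as one member of a kinome-wide kinase panel, with MAP4K2 as the panel entry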
[21] = target: Mitogen-activated protein kinase kinase kinase kinase 5 (Homo sapiens, UniProt Q9Y4K4); assay type: functional;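 note: measured as one member of a kinome-spanning kinase panel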
[22] = target: Mitogen-activated protein kinase 12 (Homo sapiens, UniProt P53778); assay type: functional;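 note: measured as one member of a kinome-wide kinase profiling panel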
[23] = target: MAP kinase-activated protein kinase 2 (Homo sapiens, UniProt P49137); assay type: functional;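 note: measured as one member of a kinome-wide kinase panel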
[24] = target: Serine/threonine-protein kinase BRSK1 (Homo sapiens, UniProt Q8TDC3); assay type: functional;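 note: measured within a kinome-wide kinase panel, with the target listed as KIAA1811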
[25] = target: Serine/threonine-protein kinase pim-3 (Homo sapiens, UniProt Q86V86); assay type: functional;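 note: value obtained as one member of a broad kinase panel profiling effort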
[26] = target: Serine/threonine-protein kinase PLK3 (Homo sapiens, UniProt Q9H4B4); assay type: functional
Chain of Serine/threonine-protein kinase PLK3 (Q9H4B4 whole entry): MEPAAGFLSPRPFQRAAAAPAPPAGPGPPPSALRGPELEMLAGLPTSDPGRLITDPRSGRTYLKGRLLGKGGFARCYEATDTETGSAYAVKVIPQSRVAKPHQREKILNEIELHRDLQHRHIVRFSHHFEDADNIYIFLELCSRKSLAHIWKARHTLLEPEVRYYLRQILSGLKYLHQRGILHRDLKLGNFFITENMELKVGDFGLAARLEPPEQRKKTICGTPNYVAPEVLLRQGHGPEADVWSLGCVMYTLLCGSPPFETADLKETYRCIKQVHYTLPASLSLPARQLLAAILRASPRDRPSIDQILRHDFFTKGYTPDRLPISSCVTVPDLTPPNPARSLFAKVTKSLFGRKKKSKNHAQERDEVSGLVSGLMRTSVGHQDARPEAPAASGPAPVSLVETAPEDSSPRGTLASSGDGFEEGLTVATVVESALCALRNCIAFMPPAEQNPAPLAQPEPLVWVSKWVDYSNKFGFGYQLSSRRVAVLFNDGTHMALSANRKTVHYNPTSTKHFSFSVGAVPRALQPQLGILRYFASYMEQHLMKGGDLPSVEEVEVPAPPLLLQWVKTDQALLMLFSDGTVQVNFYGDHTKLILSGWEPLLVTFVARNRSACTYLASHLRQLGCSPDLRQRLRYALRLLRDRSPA

[27] = target: Vascular endothelial growth factor receptor 2 (Homo sapiens, UniProt P35968); assay type: functional
[28] = target: Tyrosine-protein kinase JAK3 (Homo sapiens, UniProt P52333); assay type: functional
[29] = target: Rho-associated protein kinase 1 (Homo sapiens, UniProt Q13464); assay type: functional;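 note: measured within a broad kinome-wide panel profiling many kinases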
Chain of Rho-associated protein kinase 1 (Q13464 whole entry): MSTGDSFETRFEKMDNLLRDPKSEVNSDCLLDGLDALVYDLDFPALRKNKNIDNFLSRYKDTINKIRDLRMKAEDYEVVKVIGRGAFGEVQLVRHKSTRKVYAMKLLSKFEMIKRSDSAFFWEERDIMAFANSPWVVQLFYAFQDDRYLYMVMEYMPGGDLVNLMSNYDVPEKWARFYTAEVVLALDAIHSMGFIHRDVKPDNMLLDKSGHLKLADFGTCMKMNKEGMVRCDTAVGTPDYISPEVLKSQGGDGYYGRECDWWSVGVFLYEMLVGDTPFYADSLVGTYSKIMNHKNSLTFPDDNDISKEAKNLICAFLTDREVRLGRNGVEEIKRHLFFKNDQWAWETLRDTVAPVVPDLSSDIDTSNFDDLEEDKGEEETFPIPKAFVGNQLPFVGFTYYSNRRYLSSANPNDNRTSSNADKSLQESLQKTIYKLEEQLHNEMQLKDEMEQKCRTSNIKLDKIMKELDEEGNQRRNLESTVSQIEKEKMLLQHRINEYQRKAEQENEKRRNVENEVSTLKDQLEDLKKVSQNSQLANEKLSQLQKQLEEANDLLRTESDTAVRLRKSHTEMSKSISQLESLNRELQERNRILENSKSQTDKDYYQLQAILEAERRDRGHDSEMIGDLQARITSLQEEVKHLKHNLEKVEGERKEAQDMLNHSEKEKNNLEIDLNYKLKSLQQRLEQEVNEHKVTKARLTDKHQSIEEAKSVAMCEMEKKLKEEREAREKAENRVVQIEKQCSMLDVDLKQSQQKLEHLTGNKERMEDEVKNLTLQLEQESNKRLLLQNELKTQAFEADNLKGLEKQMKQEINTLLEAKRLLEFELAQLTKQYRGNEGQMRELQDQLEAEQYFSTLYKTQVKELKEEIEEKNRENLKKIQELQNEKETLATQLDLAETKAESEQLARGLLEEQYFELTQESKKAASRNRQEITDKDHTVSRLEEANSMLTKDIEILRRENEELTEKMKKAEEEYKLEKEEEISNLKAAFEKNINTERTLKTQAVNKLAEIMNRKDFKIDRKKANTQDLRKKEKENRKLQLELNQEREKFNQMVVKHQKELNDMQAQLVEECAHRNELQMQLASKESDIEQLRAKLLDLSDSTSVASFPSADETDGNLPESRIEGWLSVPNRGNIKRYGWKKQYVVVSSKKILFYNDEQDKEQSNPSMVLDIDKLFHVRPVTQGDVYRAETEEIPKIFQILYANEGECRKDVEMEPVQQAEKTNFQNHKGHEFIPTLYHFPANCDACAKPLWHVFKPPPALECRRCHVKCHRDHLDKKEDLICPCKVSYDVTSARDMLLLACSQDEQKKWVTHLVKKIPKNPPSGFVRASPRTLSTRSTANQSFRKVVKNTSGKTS

[30] = target: cAMP-dependent protein kinase catalytic subunit alpha (Homo sapiens, UniProt P17612); assay type: functional
[31] = target: Mitogen-activated protein kinase 8 (Homo sapiens, UniProt P45983); assay type: functional;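 note: value comes from one member of a kinome-wide kinase profiling panel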
[32] = target: Serine/threonine-protein kinase Chk2 (Homo sapiens, UniProt O96017); assay type: functional;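 note: CHEK2 entry within a kinome-wide screening panel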
[33] = target: Ephrin type-A receptor 2 (Homo sapiens, UniProt P29317); assay type: functional;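 note: EPHA2 tested as one member of a kinome-wide kinase panel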
[34] = target: Testis-specific serine/threonine-protein kinase 1 (Homo sapiens, UniProt Q9BXA7); assay type: functional
[35] = target: Proto-oncogene tyrosine-protein kinase ROS (Homo sapiens, UniProt P08922); assay type: functional;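 note: ROS1 tested as one member of a kinome-wide kinase panel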
[36] = target: BDNF/NT-3 growth factors receptor (Homo sapiens, UniProt Q16620); assay type: functional;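 note: NTRK2 measured as one member of a broad kinome-wide kinase profiling panel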
[37] = target: Serine/threonine-protein kinase DCLK1 (Homo sapiens, UniProt O15075); assay type: functional;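 note: affinity for DCLK1 (listed as DCAMKL1) measured as one member of a kinome-wide kinase profiling panel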
Chain of Serine/threonine-protein kinase DCLK1 (O15075 whole entry): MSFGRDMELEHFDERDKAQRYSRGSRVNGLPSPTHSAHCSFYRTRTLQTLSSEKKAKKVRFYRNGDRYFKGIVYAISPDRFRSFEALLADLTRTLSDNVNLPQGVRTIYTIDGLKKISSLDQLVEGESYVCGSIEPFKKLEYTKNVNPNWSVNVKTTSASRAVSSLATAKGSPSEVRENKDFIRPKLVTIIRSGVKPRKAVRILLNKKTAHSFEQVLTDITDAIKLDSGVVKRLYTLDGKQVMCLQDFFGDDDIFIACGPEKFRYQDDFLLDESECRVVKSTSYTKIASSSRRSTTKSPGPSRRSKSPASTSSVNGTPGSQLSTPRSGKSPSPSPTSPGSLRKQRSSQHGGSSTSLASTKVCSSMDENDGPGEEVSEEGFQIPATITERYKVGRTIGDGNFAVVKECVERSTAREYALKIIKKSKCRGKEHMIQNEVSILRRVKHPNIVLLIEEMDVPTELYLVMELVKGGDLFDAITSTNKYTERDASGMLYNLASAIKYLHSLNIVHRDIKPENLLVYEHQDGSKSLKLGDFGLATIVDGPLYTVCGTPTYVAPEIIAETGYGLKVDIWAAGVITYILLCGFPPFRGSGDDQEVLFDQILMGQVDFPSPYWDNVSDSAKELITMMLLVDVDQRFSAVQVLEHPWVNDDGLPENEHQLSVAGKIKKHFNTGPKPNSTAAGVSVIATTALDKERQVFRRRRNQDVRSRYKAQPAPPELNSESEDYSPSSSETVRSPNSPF

[38] = target: Interleukin-1 receptor-associated kinase 1 (Homo sapiens, UniProt P51617); assay type: functional;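 note: IRAK1 tested as one member of a kinome panel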
[39] = target: RAC-gamma serine/threonine-protein kinase (Homo sapiens, UniProt Q9Y243); assay type: functional
[40] = target: Tyrosine-protein kinase JAK2 (Homo sapiens, UniProt O60674); assay type: functional;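 note: JAK2 tested as one member of a kinase panel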
[41] = target: Serine/threonine-protein kinase PLK1 (Homo sapiens, UniProt P53350); assay type: functional;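 note: PLK1 measured as one member of a kinome-wide profiling panel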
[42] = target: Receptor-type tyrosine-protein kinase FLT3 (Homo sapiens, UniProt P36888); assay type: functional;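 note: FLT3 was tested as one member of a kinome-wide kinase panel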
[43] = target: Serine/threonine-protein kinase PAK 1 (Homo sapiens, UniProt Q13153); assay type: functional
[44] = target: RAC-alpha serine/threonine-protein kinase (Homo sapiens, UniProt P31749); assay type: functional;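 note: AKT1 affinity measured as one member of a kinome-wide kinase profiling panel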
[45] = target: Mitogen-activated protein kinase 1 (Homo sapiens, UniProt P28482); assay type: functional
[46] = target: Tyrosine-protein kinase BTK (Homo sapiens, UniProt Q06187); assay type: functional
[47] = target: Lymphokine-activated killer T-cell-originated protein kinase (Homo sapiens, UniProt Q96KB5); assay type: functional;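 note: value comes from a kinase panel screen in which TOPK was one of the panel members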

Ki [1]: > 6310 nM (inactive)
Ki [2]: 126 nM (active)
Ki [3]: > 1260 nM (inactive)
Ki [4]: > 3980 nM (inactive)
Ki [5]: 5010 nM (active)
Ki [6]: 200 nM (active)
Ki [7]: > 5010 nM (inactive)
Ki [8]: > 2000 nM (inactive)
Ki [9]: 3160 nM (active)
Ki [10]: 10000 nM (active)
Ki [11]: > 2000 nM (inactive)
Ki [12]: > 1580 nM (inactive)
Ki [13]: > 7940 nM (inactive)
Ki [14]: > 794 nM (inactive)
Ki [15]: > 2000 nM (inactive)
Ki [16]: > 1260 nM (inactive)
Ki [17]: 3980 nM (active)
Ki [18]: 79.4 nM (active)
Ki [19]: 3980 nM (active)
Ki [20]: 501 nM (active)
Ki [21]: 631 nM (active)
Ki [22]: 5010 nM (active)
Ki [23]: 25.1 nM (active)
Ki [24]: 2000 nM (active)
Ki [25]: 3160 nM (active)
Ki [26]: > 7940 nM (inactive)
Ki [27]: 1260 nM (active)
Ki [28]: > 1580 nM (inactive)
Ki [29]: 1580 nM (active)
Ki [30]: 631 nM (active)
Ki [31]: 126 nM (active)
Ki [32]: 39.8 nM (active)
Ki [33]: > 3160 nM (inactive)
Ki [34]: > 1580 nM (inactive)
Ki [35]: > 2000 nM (inactive)
Ki [36]: > 5010 nM (inactive)
Ki [37]: > 10000 nM (inactive)
Ki [38]: 7940 nM (active)
Ki [39]: > 10000 nM (inactive)
Ki [40]: > 1580 nM (inactive)
Ki [41]: > 7940 nM (inactive)
Ki [42]: 1260 nM (active)
Ki [43]: 3980 nM (active)
Ki [44]: > 7940 nM (inactive)
Ki [45]: > 7940 nM (inactive)
Ki [46]: > 1260 nM (inactive)
Structure (SMILES): NC(=O)Cn1cc(-c2cc(-c3cc4ccccc4s3)c3[nH]ncc3c2)c2nc(N)ncc21
Ki [47]: > 10000 nM (inactive)
